The values below come from patent US4801616A, “Diphenylmethanone compounds and anti-inflammatory use thereof” (Eli Lilly and Company, priority 1986, dated 1989).

One assay addresses T1, 5-lipoxygenase (Cavia porcellus, UniProt A0A286X958).
T1 construct: incubating 0.2 ml of the supernatant obtained from the PMNL sonicate with the test compound; from tissue; host or cells: casein-elicited guinea pig peritoneal polymorphonuclear leukocytes (PMNL, more than 95 percent of the cells), sonicated, 30,000 x g supernatant
T1 sequence (A0A286X958 1-674): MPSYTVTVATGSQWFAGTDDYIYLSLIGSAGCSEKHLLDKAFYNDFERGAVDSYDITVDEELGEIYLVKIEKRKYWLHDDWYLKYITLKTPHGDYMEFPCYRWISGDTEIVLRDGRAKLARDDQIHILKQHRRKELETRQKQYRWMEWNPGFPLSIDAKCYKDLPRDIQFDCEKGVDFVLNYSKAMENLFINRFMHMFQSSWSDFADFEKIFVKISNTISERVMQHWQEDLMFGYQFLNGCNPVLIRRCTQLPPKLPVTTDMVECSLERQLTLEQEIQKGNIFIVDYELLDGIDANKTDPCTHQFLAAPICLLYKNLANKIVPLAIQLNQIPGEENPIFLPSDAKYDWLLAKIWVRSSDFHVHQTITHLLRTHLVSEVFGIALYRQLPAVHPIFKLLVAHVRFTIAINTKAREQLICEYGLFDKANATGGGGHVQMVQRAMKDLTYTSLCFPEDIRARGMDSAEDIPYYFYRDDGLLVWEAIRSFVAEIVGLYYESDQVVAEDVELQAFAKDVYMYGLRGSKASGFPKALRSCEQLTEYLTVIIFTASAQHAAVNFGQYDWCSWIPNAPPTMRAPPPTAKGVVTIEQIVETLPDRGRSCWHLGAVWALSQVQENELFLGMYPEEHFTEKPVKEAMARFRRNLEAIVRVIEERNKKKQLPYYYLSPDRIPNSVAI
Put plainly: 5-Lipoxygenase (5-LPO) Assay, inhibition of 5-HETE formation in PMNL sonicate supernatant. The class given is biochemical, guinea pig. Conditions: guinea pig PMNL sonicate supernatant, 37° C., 5 μM 14C-arachidonic acid. On the procedure: 5-Lipoxygenase (5-LPO) Assay
Ten milliliters of a 2% casein solution were injected intraperitoneally into guinea pigs weighing 250-300 gm. After 16-18 hours, the guinea pigs were killed by suffocation in a carbon dioxide chamber. The peritoneal cavity was infused with 70 ml of saline and 40-50 ml of the fluid were recovered from the cavity. After centrifugation, cell pellets were washed twice in Hank's balanced salt solution (HBSS) without calcium ion.
The cells were then suspended in 5 ml of sodium phosphate buffer, pH 7.1 containing 1 mM EDTA, and 0.1% gelatin. About 20-30×10^7 cells were obtained from one guinea pig.
The PMNL suspension was disrupted by five 1/2 second pulse sonications at the setting of 3 in a Branson Sonifier, Model 350, equipped with a microtip. The sonicates were combined and centrifuged at 30,000× g for 10 minutes. The supernatant was kept frozen at -70° C. until use.
Enzyme activity was determined by assaying for 5-HETE formation by first incubating 0.2 ml of the supernatant obtained from the PMNL sonicate with the test compound, 1 mM CaCl2, 2 mM ATP, and 1 mM GSH for 5 minutes at 37° C. The mixture is treated with 5 μM ^14 C-arachidonicacid and incubated at 37° C. an additional 10 minutes. The enzyme reaction was then stopped by the addition of 10 μl of 1M citric acid and 10μl of an alcohol solution containing 20 mg/ml each of indomethacin and butylated hydroxyanisole (BHA). The reaction mixture was spotted (50 μl on a silica gel plate (Baker TLC plate S1250-PA-19C) and subjected to TLC in a solvent system of ethyl acetate/2,2,4-trimethylpentane/glacial acetic acid/water (90:50:20:100).
The radioactivity of the arachidonic acid and its metabolites (5-HETE and LTB4) was visualized from a developed x-ray film which had been exposed to the TLC plate 1-2 days. The amount of 5-HETE formed was quantitated by scraping the silica gel area corresponding to the spot on the x-ray film, and the radioactivity determined in a Isocap/300 liquid scintillation counter (Searle Analytic, Inc.).
The percent inhibition of the formation of 5-HETE was determined for each concentration of test compound tested as compared to a control experiment wherein no test compound was added. The concentration and percent inhibition values were plotted on semi log paper and the concentration in which formation of 5-HETE is inhibited by 50% (IC50) was determined by interpolation.

The target of assay [1] is T2, fatty acid cyclooxygenase (Homo sapiens, UniProt P23219).
T2 construct: The solubilized fatty acid cyclooxygenase was applied to a 440 ml electrofocusing column; from tissue; host or cells: human platelets: microsomes solubilized with Triton X-100, purified by electrofocusing and G-200 Sephadex
In words: Fatty Acid Cyclooxygenase (FCO) Assay, inhibition of PGE2 formation by purified human platelet enzyme. The assay is classed as biochemical. The settings on record: percent inhibition at 30 μg/ml. As for the experimental part: Fatty Acid Cyclooxygenase (FCO) Assay
Microsomes were prepared from 185 bags of human platelets (each bag containing the platelets from one pint of blood prepared using differential centrifugation procedures). The platelets from approximately 60 bags were prepared at one time. Platelet-rich plasma (500 g) was centrifuged at 10,000×g for 20 minutes, and the platelet pellet was suspended in 100 ml of 0.1M potassium phosphate buffer, pH 8.0, with a Teflon glass homogenizer and sonicated for 5.0 minutes with a Bronson Sonifier (Model 350) in a rosette flask cooled in ice water. Disrupted platelets were centrifuged 15 minutes at 10,000× g. The supernatant was centrifuged at 100,000× g for 90 minutes and the microsomal pellets were homogenized in 25 ml of 20% sucrose containing 1.0% Triton X-100 detergent. After 30 minutes at 4° C., the solubilized microsomes were centrifuged at 100,000× g for 60 minutes. The yellow supernatant was removed and stored at -70 ° C.
The solubilized fatty acid cyclooxygenase was applied to a 440 ml electrofocusing column (LKB-8012) containing 1% phisolytes (Brinkman Instruments, Westburgh, NY), pH 2-11, with the cathode at the top of the column. The enzyme was layered onto the column at the appropriate time so that its sucrose concentration was equal to that of the column gradient. This was accomplished by checking the gradient concentration periodically with a sucrose hand refractometer. Electrofocusing was carried out for 16 hours with an initial voltage of 400 V and a final voltage of 900-1,000 volts. Fractions were collected (20 ml) and assayed for PGE2 formation. Active peak fractions were pooled and concentrated by ultrafiltration (XM 100A) to a volume of 3-5 ml.
Active fractions from electrofocusing were applied to a G-200 Sephadex column (2 cm×46 cm) and eluted with 10 mM potassium phosphate buffer, pH 7.0, in 5 ml fractions. After assay, active fractions were poored and concentrated to 1.0 ml by ultrafiltration (XM 100A), and kept frozen at -70° C.
Enzyme activity was determined by assaying for PGE2 formation by preincubating the enzyme with 10 mmol/l imidazole phosphate buffer, pH 8.0, 2 mmol/l epinephrine, 2 mmol/l methemoglobin, and the test compound (30 μg/ml) in a total volume of 0.2 ml for one minute at 37° C. After preincubation, 5 mmol/l ^14 C-arachidonic acid were added and the mixture was incubated an additional 0.5 minutes at 37° C. The enzyme reaction was stopped by the addition of 2 μl of indomethacin (2 mg/ml) in alcohol.
The reaction mixture was spotted (50 μl) on a silica gel (LQ6D) plate and subjected to TLC. The solvent system consisted of chloroform-methanol-glacial acetic acid (90:5:5, v/v/v) and the relative mobilities were PGF2α =0.235, and PGE2 =0.47. The silica gel on the plate was scraped in 1 cm sections, suspended in 5 ml of the scintillation fluid [5.88 g of 2,5-diphenyloxazole and 118 mg of 1,4 -bis(5-phenyloxazol-2-yl)benzene] dissolved in 650 ml of toluene and 350 ml of Triton X-100) and the radioactivity was determined in an Isocap/300 liquid scintillation counter (Searle Analytic, Inc., Southfield, Mich.). Another 50 μl of the mixture was added to 10 ml of the Triton X-100 based scintillation fluid, and the radioactivity was determined so that the amount of radioactivity recovery from the TLC plate could be ascertained. PGE2 formation for each test compound was determined as a percent of control experiments wherein no test compound was added. Data is expressed in Table I either as the percent inhibition of formation of PGE2 at a test compound concentration of 30 μ g/ml, or as an IC50 for inhibition of PGE2 formation.

SMILES strings stand for the structures.

T2 sequence (P23219 24-599): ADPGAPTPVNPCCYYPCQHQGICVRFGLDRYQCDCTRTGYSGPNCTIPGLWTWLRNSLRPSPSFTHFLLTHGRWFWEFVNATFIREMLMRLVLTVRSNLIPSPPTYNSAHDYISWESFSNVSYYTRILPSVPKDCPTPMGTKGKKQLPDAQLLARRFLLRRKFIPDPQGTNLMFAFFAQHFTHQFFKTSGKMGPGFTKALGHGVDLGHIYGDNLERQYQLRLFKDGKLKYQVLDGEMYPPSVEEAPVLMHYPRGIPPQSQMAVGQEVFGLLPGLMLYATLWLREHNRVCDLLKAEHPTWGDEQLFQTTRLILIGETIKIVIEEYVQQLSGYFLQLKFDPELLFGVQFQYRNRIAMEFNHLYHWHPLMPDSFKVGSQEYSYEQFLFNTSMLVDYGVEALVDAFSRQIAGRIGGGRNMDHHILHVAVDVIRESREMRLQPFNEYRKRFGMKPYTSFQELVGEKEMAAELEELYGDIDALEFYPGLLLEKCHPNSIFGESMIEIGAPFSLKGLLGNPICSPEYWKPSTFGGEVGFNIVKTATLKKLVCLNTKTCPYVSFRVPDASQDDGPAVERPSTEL

For `CCCc1c(OCCCCC(=O)N(CC)CC)ccc(C(=O)c2ccccc2OC)c1OC` [Example 31, N,N-Diethyl-5-[3-methoxy-4-(2-methoxybenzoyl)-2-propylphenoxy]pentanamide], the IC50 (usually the concentration needed to halve the response being measured) against 5-lipoxygenase was 17.6 µM. Besides, in assay [1], the inhibition (usually the relative decrease from the control value, in per cent) at 30 µg/mL is below 5%.
In the same order, the values of `CCCc1c(O)ccc(C(=O)c2ccccc2Cl)c1O` [Example 10, (2-Chlorophenyl)(2,4-dihydroxy-3-propylphenyl)methanone] are 17.2 µM and 100%.
In the same order, the values of `CCCc1c(OCCCCCCC#N)ccc(C(=O)c2ccccc2O)c1O` [Example 14, 7-[3-Hydroxy-4-(2-hydroxybenzoyl)-2-propylphenoxy]heptanenitrile] are 0.524 µM and 37%.
Turning to `CCCc1c(OC(C)=O)ccc(C(=O)c2ccccc2OC(C)=O)c1O` [Example 6, [4-(Acetyloxy)-2-hydroxy-3-propylphenyl][2(acetyloxy)phenyl]methanone], the midpoint of inhibition against 5-lipoxygenase, the IC50, lay at 11.2 µM. Moreover, in assay [1], the inhibition at 30 µg/mL came out at 12%.
